This is an account of results in ChEMBL document CHEMBL1130295, “A QSAR study of antiplatelet agents using artificial neural network - correlation with micelle-water partition coefficient” (1997).

This assay can be described thus: Antiplatelet activity as log (APA) by using artificial neural network (ANN) method. The format is functional.
As for `COc1cc(NC(C)=O)c([N+](=O)[O-])cc1-c1nc(C)c(-c2cccnc2)[nH]1`, the “Observed log APA” value is reported as 1.5.

For `COc1cc(NC(C)=O)c(Cl)cc1-c1nc(C)c(-c2cccnc2)[nH]1`, the “Observed log APA” value was 1.4.

`COc1c(-c2nc(C)c(-c3cccnc3)[nH]2)cc2nc(C)[nH]c2c1Cl`: the “Observed log APA” value is listed as 1.4.

In the case of `COc1c(-c2nc(C)c(-c3cccnc3)[nH]2)ccc2[nH]c(C)nc12`, the “Observed log APA” value came out at 0.72.

Regarding `CCOC(=O)COc1ccccc1-c1nc(C)c(-c2cccnc2)[nH]1`, the “Observed log APA” value is 0.6.

For the compound `Cc1nc2cc(Cl)c(-c3nc(C)c(-c4cccnc4)[nH]3)cc2[nH]1`, the “Observed log APA” value was determined as 0.68.

Turning to `COc1cc2c(cc1-c1nc(C)c(-c3cccnc3)[nH]1)nc(O)n2C`, the “Observed log APA” value is reported as 0.57.

Take `Cc1[nH]c(-c2ccccc2F)nc1-c1cccnc1`: the “Observed log APA” value is 1.4.

Regarding `COc1cc(OC)c(-c2nc(C)c(-c3cccnc3)[nH]2)cc1NC(C)=O`, the “Observed log APA” value turned out to be 0.93.

For the compound `Cc1[nH]c(-c2ccccc2Cl)nc1-c1cccnc1`, the “Observed log APA” value turned out to be 0.38.

With `COc1ccccc1-c1nc(C)c(-c2cccnc2)[nH]1`, the “Observed log APA” value is on record as 1.1.

Take `COC(=O)Nc1ccccc1-c1nc(C)c(-c2cccnc2)[nH]1`: the “Observed log APA” value was found to be 1.4.

In the case of `CCOc1ccccc1-c1nc(C)c(-c2cccnc2)[nH]1`, the “Observed log APA” value came out at 1.1.

Turning to `Cc1ccccc1-c1nc(C)c(-c2cccnc2)[nH]1`, the “Observed log APA” value is 0.18.

Regarding `COc1cc2[nH]c(C)nc2cc1-c1nc(C)c(-c2cccnc2)[nH]1`, the “Observed log APA” value was 0.83.

As to `COc1c(-c2nc(C)c(-c3cccnc3)[nH]2)cc2nc(O)[nH]c2c1Cl`, the “Observed log APA” value was 0.79.

In the case of `CSc1ccccc1-c1nc(C)c(-c2cccnc2)[nH]1`, the “Observed log APA” value was 0.95.

As for `Cc1[nH]c(-c2ccccc2N)nc1-c1cccnc1`, the “Observed log APA” value is 0.8.

In the case of `COc1c(-c2nc(C)c(-c3cccnc3)[nH]2)cc(Cl)c2[nH]c(C)nc12`, the “Observed log APA” value is reported as 1.3.

As to `Cc1nc2cc(-c3nc(C)c(-c4cccnc4)[nH]3)c(C)cc2[nH]1`, the “Observed log APA” value worked out at 0.74.

For the compound `COc1c(-c2nc(C)c(-c3cccnc3)[nH]2)cc(Cl)c2[nH]c(CCC(=O)O)nc12`, the “Observed log APA” value is listed as 0.4.

For the compound `CNC(=O)Nc1ccccc1-c1nc(C)c(-c2cccnc2)[nH]1`, the “Observed log APA” value is 1.1.
